Reference: US11518765B2, “Substituted pyrimidine derivatives useful in the treatment of autoimmune diseases” (THE PROVOST, FELLOWS, FOUNDATION SCHOLARS, AND THE OTHER …, priority 2015, dated 2022)

How the values were obtained:
Assay type in all cases: in vivo, mice (C57BL/6)
[1] = test system: chronic monophasic EAE disease in mice; assay: chronic monophasic EAE disease in mice, EAE score (disease severity); settings: FIG. 1
Experimental: (§1) To assess the potential of these compounds in vivo, a chronic monophasic EAE disease in mice was induced before treatment with the new chemical entity (NCE). EAE Disease was induced in 8-10 week old female mice (C57BL/6) by subcutaneous (s.c.) injection of 200 μl emulsion containing 150 μg […] peptide (Genscript) in Complete Freund's Adjuvant (CFA; containing 5 mg/ml heat-inactivated Mycobacterium tuberculosis). On the same day, mice were administered 500 ng Pertussis Toxin (Kaketsuken, Japan) intraperitoneally (i.p.) and again two days later. Disease severity was recorded every 24 hours: 0-Normal; 1-flaccid tail; 2-imparied/wobbly gait; 3-complete hind limb weakness; 4-hind limb and forelimb paralysis; 5-moribund state/dead. Protocol is based on the Nature Protocols for Active induction of experimental allergic encephalomyelitis, which includes the scoring methodology: • Stromnes I M, Goverman J M (2006) Active induction of experimental allergic encephalomyelitis. Nat Protoc. 1(4):1810-9.
The EAE score relates to an assessment of disease progression with respect to issues like tail paralysis and limb paralysis, a higher score is a worse condition. A score of 1 indicates decreased tail tone, a score of 2 indicates hind leg weakness (paraparesis), a score of 3 indicates hind limb paralysis and/or incontinence. Note that the untreated animals have a continuous and progressive worsening of disease.

[2] = body weight of EAE diseased mice; settings: treated EAE animals, FIG. 2
Experimental: as §1
(§2) This contrasts with the sustained drop in body weight of non-treated EAE diseased animals to a level 86.4% that of controls at 21 dpi (17.8 grams versus 20.6 grams). Motor coordination and hind-limb strength were also evaluated by the ability of mice to cross a horizontal bar (FIG. 3). Non-diseased animals crossed the bar with an average time of 4.3±0.57 seconds.

[3] = test system: chronic monophasic EAE disease in mice; assay: motor coordination and hind-limb strength: ability of EAE mice to cross a horizontal bar; settings: EAE diseased mice, within 4 treatments; FIG. 3
Experimental: as §1, §2

Compound: Cl.Nc1nc2[nH]cc(CNCCCc3ccccc3)c2c(=O)[nH]1 [Compound I, N-((2-amino-4-oxo-4,7-dihydro-3H-pyrrolo[2,3-d]pyrimidin-5-yl)methyl)-3-phenylpropan-1-aminium chloride]
- EAE scoring after treatment ([1]; 30 mg/kg, i.p., after 4 daily treatments): disease free
- time to reversal of symptoms (EAE score) ([1]; highest dosage given, 30 mg/kg, i.p.): ≤ 24 h
- disease progression (EAE score) ([1]; lower doses, animals slower to respond): halted and reversed
- body weight ([2]; 21 dpi, controls 20.6 grams): 19.9 grams
- body weight level relative to controls ([2]; 21 days post inoculation (dpi)): 96.6%
- performance crossing a horizontal bar [3]: fully restored the performance of EAE diseased mice to control levels
